Test results from patent publication US8889379B2, “Biocatalytic production of glycosides” (Universiteit Gent, priority 2010, dated 2014).
“Also recorded” adds a separate entry of the source.

B1: cellodextrin phosphorylase from Clostridium stercorarium (CsCDP) (Thermoclostridium stercorarium subsp. stercorarium DSM 8532) (protein)
chain: MRYGYFDEKAREYVITRPDTPTPWINYIGNGKYGGIVTNTGGGYSFHKDPQNRRITRYRYNNLPTDRPGRYIYVRDRLTGEYWNPGYQPVQRKLDSYRCRHGMGYTVLEGEYKGIAADVTYFVPDDRDFEIWLVQIRNLCHVERNLQVFSYAEFCFWDAIMDQQNVDWVQQINQGRYEDRLITWHPHHFKDACAFFATNAEINSFDTNLEAFIGRYRCESNPIAVETGACSNSVSYRMNGVGAFCIDVNLKPGEEREIIFILGFTENKSTIRDEIRDYLNVEYAKEALKRLKDSWEEYLDKLQIETPDRETNLFVNTWNQYQCKITFNWSRFVSMYQLGLGRGIGIRDSAQDTLGVMHSIPELAGGLIKRLIHCQYTDGRVYHLFFPLTGEGGIGDAPVVKFDWYSDDHLWLPIAANAYLKETANFDFLESVVPYNDNKTEGTVWEHLNRAMEFTYNHRGPHGLALIGRADWNDTLNLDMGNGIAESVFTSMLFCRAALEMIQMAEYTGQKDLATKYRYWYDEMKKAINEWCWDGEWYIRAFDDEGNVLGSGKNRYGKIFINSQSWAVLSMVAPEEYAKKCLESVYRHLNTKYGIVKVYPAYPEYNPKIGGMTTYPPGAKENGGIFAHTNPWVMIAECMMGNGRRAYQYYRQILPLTRNDDADLLEVEPYVYCQNILGKEHPQFGIGRNSWLTGTAAWNMVAVSQYILGIRPEYDGLTVDPCIPPDWKGFKVRRIFRGCVYNIEVRNPEGVSRGVKKIVVDGVETDKIPVKPAGTVCECVVIMG
B2: CsCDP: recombinant cellodextrin phosphorylase from Clostridium stercorarium DSM8532, Genbank U60580 (protein, listed as Clostridium stercorarium)
chain: MRYGYFDEKAREYVITRPDTPTPWINYIGNGKYGGIVTNTGGGYSFHKDPQNRRITRYRYNNLPTDRPGRYIYVRDRLTGEYWNPGYQPVQRKLDSYRCRHGMGYTVLEGEYKGIAADVTYFVPDDRDFEIWLVQIRNLCHVERNLQVFSYAEFCFWDAIMDQQNVDWVQQINQGRYEDRLITWHPHHFKDACAFFATNAEINSFDTNLEAFIGRYRCESNPIAVETGACSNSVSYRMNGVGAFCIDVNLKPGEEREIIFILGFTENKSTIRDEIRDYLNVEYAKEALKRLKDSWEEYLDKLQIETPDRETNLFVNTWNQYQCKITFNWSRFVSMYSWGLGRGIGIRDSAQDTLGVMHSIPELAGGLIKRLIHCQYTDGRVYHLFFPLTGEGGIGDAPVVKFDWYSDDHLWLPIAANAYLKETANFDFFQSVVPYNDNKTEGTVWEHLNRAMEFTYNHRGPHALPYSRADWNDTLNLDMGNGIAETLFTSMLFSEPPLKRFRCRISDKRIATKYRYWYDEMKQAINEWCWDGEWYIRAFDDEGNVLGSGKNRYGKIFINSQSWAVLSMVAPEEYAKKCLESVYRHLNTKYGIVKVYPAYPEYNPKIGGMTTYPPGAKENGGIFAHTNPWVMIAECMMGNGRRAYQYYRQILPLTRNDDADLLEVEPYVYCQNILGKEHPQFGIGRNSWLTGTAAWNMVAVSQYILGIRPEYDGLTVDPCIPPDWKGFKVRRIFRGCVYNIEVRNPEGVRRCEKNCRRGVETDKIPVKPAGTVCECVVIMG

Assays:
[1] = molecular target: T1, cellodextrin phosphorylase from Clostridium stercorarium (CsCDP) (Thermoclostridium stercorarium, UniProt L7VUB7); experiment: CsCDP activity assay (orthophosphate release, synthetic direction); assay type: biochemical; conditions: for Specific activity (U/mg): acceptor specificity, 30 mM Glc1P donor; for Specific activity (U/mg) / Relative activity (%): 50 mM MES buffer pH 6.5, 50 mM of acceptor; for Relative activity (%): relative to cellobiose
Method: (§1) Protein concentrations were measured with the BCA Protein Assay kit from Thermo Scientific. The activity assays were performed with 5% of purified enzyme (50 μg/mL, final concentration) in 50 mM MES buffer pH 6.5, containing 30 mM donor (Glc1P) or 100 mM donor (Gal1P) and 50 mM acceptor at 45° C. Samples were inactivated for 5 minutes at 95° C. before the amount of orthophosphate (Pi) was measured by the method of Gawronski and Benson, 2004. The Km and kcat values in the kinetic study were calculated from a Hanes-Woolf plot.

[2] = molecular target: T1, cellodextrin phosphorylase from Clostridium stercorarium (CsCDP); experiment: Kinetic study of the synthetic reaction of CsCDP (Hanes-Woolf plot); assay type: biochemical; conditions: donor substrate instead of Glc1P
Method: as §1

[3] = molecular target: T1, cellodextrin phosphorylase from Clostridium stercorarium (CsCDP); experiment: CsCDP activity assay (orthophosphate release, synthetic direction); assay type: biochemical; conditions: 20 mM of acceptor, 45° C. and pH 6.5
[4] = substrate: O=P(O)(O)O[C@H]1O[C@H](CO)[C@@H](O)[C@H](O)[C@H]1O; experiment: Kinetic study of the synthetic reaction of CsCDP (Hanes-Woolf plot); assay type: biochemical, Clostridium stercorarium; conditions: other: synthetic reaction, 50 mM MES buffer pH 6.5 at 45° C.
[5] = substrate: O=[N+]([O-])c1ccc(O[C@@H]2O[C@H](CO)[C@@H](O)[C@H](O)[C@H]2O)cc1; experiment: as above; assay type: biochemical, Clostridium stercorarium; conditions: other: synthetic reaction, 50 mM MES buffer pH 6.5 at 45° C.
[6] = substrate: O=P(O)(O)O[C@H]1O[C@H](CO)[C@H](O)[C@H](O)[C@H]1O; experiment: as above; assay type: biochemical, Clostridium stercorarium; conditions: other: synthetic reaction, 50 mM MES buffer pH 6.5 at 45° C.
[7] = substrate: CCCCCCCCO[C@@H]1O[C@H](CO)[C@@H](O)[C@H](O)[C@H]1O; experiment: as above; assay type: biochemical, Clostridium stercorarium; conditions: other: synthetic reaction, 50 mM MES buffer pH 6.5 at 45° C.

Row | Molecule | activity of CsCDP towards the substrate (in words) [1] | Specific activity (U/mg) ([1]; 45° C.) | Relative activity (%) ([1]; 45° C.) | other results
1 | O=P(O)(O)O[C@H]1O[C@H](CO)[C@H](O)[C@H](O)[C@H]1O [Gal1P, α-galactose-1-phosphate] | active |  |  | efficiency on Gal1P as donor, times lower than on Glc1P [2]: about one thousand
2 | Lactose | absolutely no activity could be detected; also recorded: inactive |  |  | 
3 | O=[N+]([O-])c1ccc(O[C@@H]2OC[C@@H](O)[C@H](O)[C@H]2O)cc1 [PNP β-xyloside] |  | 7.5 U/mg | 33% | 
4 | CCCCCCCCO[C@@H]1O[C@H](CO)[C@@H](O)[C@H](O)[C@H]1O [Octyl β-glucoside] |  | 20.4 U/mg | 91% | 
5 | O=[N+]([O-])c1ccc(O[C@@H]2O[C@H](CO)[C@@H](O[C@@H]3O[C@H](CO)[C@@H](O)[C@H](O)[C@H]3O)[C@H](O)[C@H]2O)cc1 [PNP β-cellobioside] |  | 29.0 U/mg | 129% | 
6 | cellobiose |  | 22.4 U/mg | 100% | Activity (%) relative to the activity on cellobiose ([3]; donor 30 mM Glc1P): 100%
7 | CCCCCCO[C@@H]1O[C@H](CO)[C@@H](O)[C@H](O)[C@H]1O [Hexyl β-glucoside] |  | 19.9 U/mg | 89% | 
8 | OC[C@H]1O[C@@](CO)(O[C@H]2O[C@H](CO)[C@@H](O)[C@H](O)[C@H]2O)[C@@H](O)[C@@H]1O [Sucrose] | very poor acceptors | 0.7 U/mg | 3% | 
9 | oleoyl β-glucoside | better acceptors for CDP than cellobiose | 29.3 U/mg | 131% | Activity (%) relative to the activity on cellobiose ([3]; donor 30 mM Glc1P): 126%; Activity (%) relative to the activity on cellobiose ([3]; donor 100 mM Gal1P): 11%
10 | CO[C@@H]1O[C@H](CO)[C@@H](O)[C@H](O)[C@H]1O [Methyl β-glucoside] |  | 3.5 U/mg | 16% | 
11 | OC[C@H]1O[C@H](O[C@H]2[C@H](O)[C@@H](O)C(O)O[C@@H]2CO)[C@H](O)[C@@H](O)[C@@H]1O (mixture of isomers) [Maltose] | very poor acceptors | 0.7 U/mg | 3% | 
12 | O=[N+]([O-])c1ccc(O[C@@H]2O[C@H](CO)[C@@H](O)[C@H](O)[C@H]2O)cc1 [PNP β-glucoside, p-nitrophenyl beta-glucoside] |  | 24.7 U/mg | 110% | 
13 | oleoyl β-sophoroside [Sophorolipid] |  |  |  | Activity (%) relative to the activity on cellobiose ([3]; donor 30 mM Glc1P): 36%; activity as fraction of that on cellobiose ([1]; Table 4): about one third
14 | B1 |  |  |  | Km [4]: 2438 ± 16 µM; kcat [4]: 27.4 ± 1.7 s⁻¹; kcat/Km [4]: 10000 M⁻¹ s⁻¹; Km [5]: 640 ± 38 µM; kcat [5]: 19.6 ± 1 s⁻¹; kcat/Km [5]: 30000 M⁻¹ s⁻¹; Km [6]: 31130 ± 683 µM; kcat [6]: 2.5 ± 0.1 s⁻¹; kcat/Km [6]: 100 M⁻¹ s⁻¹; Km [7]: 623 ± 26 µM; kcat [7]: 14.2 ± 0.5 s⁻¹; kcat/Km [7]: 20000 M⁻¹ s⁻¹
15 | B2 |  |  |  | optimal temperature for activity in the direction of glycoside synthesis ([1]; 50 mM cellobiose, 30 mM Glc1P, 50 mM MES buffer pH 6.5): ~65 °C; optimal pH for activity in the direction of glycoside synthesis ([1]; 50 mM cellobiose, 30 mM Glc1P, 50 mM MES buffer, 45° C.): around 6.5; specific activity of the purified enzyme ([1]; His6-tagged purified CsCDP, cellobiose acceptor): 22.4 U/mg
